Test: Photoreaction test with cholecalciferol (photostability chamber)
Format: physicochemical
Conditions: photostability chamber, 1,200,000 LUX, 18.44 hours
Procedure: Cholecalciferol (vitamin D3) also has poor physiochemical stability and may not ensure stability with time. Generally, cholecalciferol is known to be susceptible to moisture, light, and heat. […] The amount of trans-vitamin D3 (after storage in a photostability chamber under 1,200,000 LUX for 18.44 hours) was increased by about 1.2% with respect to initial level, while the amount of vitamin D3 was reduced by about 10%.

C=C1CC[C@H](O)C/C1=C/C=C1\CCC[C@]2(C)[C@@H]([C@H](C)CCCC(C)C)CC[C@@H]12 [cholecalciferol, Cholecalciferol]
increase of the amount of trans-vitamin D3 with respect to initial level: about 1.2% | reduction of the amount of vitamin D3: about 10%

— US20170368049A1 (HANMI PHARM. CO., LTD., priority 2015, published 2017)
